Legend:
Assay in all cases: Bliss excess, mean over the matrix (fraction); higher = more synergy
[1] = tested on: TUR (Acute Myeloid Leukemia)
How it was run: (§1)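 Cell lines in DMEM/F12 or RPMI with 10% FBS were plated in 1536-well plates, held 24 hours at 37°C, 5% CO2, then given two-drug dose matrices for 72 hours (DMSO typically 0.2%). Viability was read by CellTiter-Glo 2.0 luminescence and scaled as inhibition from 0 (vehicle wells) to 1 (blank wells). Combination Emax is the second-highest inhibition in the matrix; Bliss excess is observed combination effect minus expected EA + EB − EA·EB, EA and EB being single-agent effects.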

[2] = tested on: PA-TU-8988T (Pancreatic Carcinoma)
How it was run: as §1

[3] = tested on: T47D (Breast Carcinoma)
How it was run: as §1

[4] = tested on: MONO-MAC-6 (Acute Myeloid Leukemia)
How it was run: as §1

[5] = tested on: MDA-MB-415 (Breast Carcinoma)
How it was run: as §1

[6] = tested on: ZR-75-30 (Breast Carcinoma)
How it was run: as §1

[7] = tested on: WM35 (Melanoma)
How it was run: as §1

[8] = tested on: T84 (Colorectal Carcinoma)
How it was run: as §1

[9] = tested on: P30-OHK (B-Lymphoblastic Leukemia)
How it was run: as §1

[10] = tested on: AM-38 (Glioblastoma)
How it was run: as §1

[11] = tested on: NCI-H2373 (Mesothelioma)
How it was run: as §1

[12] = tested on: OVCAR-3 (Ovarian Carcinoma)
How it was run: as §1

[13] = tested on: NCI-H1876 (Small Cell Lung Carcinoma)
How it was run: as §1

[14] = tested on: BHT-101 (Thyroid Gland Carcinoma)
How it was run: as §1

[15] = tested on: NCI-H226 (Mesothelioma)
How it was run: as §1

[16] = tested on: BxPC-3 (Pancreatic Carcinoma)
How it was run: as §1

[17] = tested on: NCI-H3118 (Head and Neck Carcinoma)
How it was run: as §1

[18] = tested on: CL-11 (Colorectal Carcinoma)
How it was run: as §1

[19] = tested on: P32-ISH (Burkitt's Lymphoma)
How it was run: as §1

[20] = tested on: NCI-H596 (Other Solid Carcinomas)
How it was run: as §1

| SMILES | Bliss excess [1] | Bliss excess [2] | Bliss excess [3] | Bliss excess [4] | Bliss excess [5] | Bliss excess [6] | Bliss excess [7] | Bliss excess [8] | Bliss excess [9] | Bliss excess [10] | Bliss excess [11] | Bliss excess [12] | Bliss excess [13] | Bliss excess [14] | Bliss excess [15] | Bliss excess [16] | Bliss excess [17] | Bliss excess [18] | Bliss excess [19] | Bliss excess [20] |
| --- | --- | --- | --- | --- | --- | --- | --- | --- | --- | --- | --- | --- | --- | --- | --- | --- | --- | --- | --- | --- |
| COc1nnc2ccc(N3CCC(c4ccc(OCCN5CCN(C)C(=O)[C@H]5C)cc4)CC3)nn12 [AZD5153] + CCN(CCO)CCCOc1ccc2c(Nc3cc(CC(=O)Nc4cccc(F)c4)[nH]n3)ncnc2c1 [AZD2811] (first compound max 1 µM, 7x7, partner max 1 µM) | 0.131 | 0.0086 | -0.0182 | 0.0519 | -0.0346 | -0.0008 | -0.016 | -0.0536 | -0.0428 | 0.039 | -0.0642 | -0.0394 | 0.0183 | -0.0257 | -0.0697 | -0.0244 | -0.0437 | -0.0529 | -0.0959 | -0.0612 |
| CN(CCO)CC[C@H](CSc1ccccc1)Nc1ccc(S(=O)(=O)NC(=O)c2ccc(N3CCC([C@@H](O)c4ccccc4-c4ccc(Cl)cc4)CC3)cc2)cc1S(=O)(=O)C(F)(F)F [AZD4320] + CCN(CCO)CCCOc1ccc2c(Nc3cc(CC(=O)Nc4cccc(F)c4)[nH]n3)ncnc2c1 [AZD2811] (first compound max 1 µM, 7x7, partner max 1 µM) | 0.0393 | 0.0239 | -0.0174 | 0.145 | 0.0756 | -0.0024 | -0.0084 | -0.0305 | 0.045 | 0.0616 | -0.0366 | -0.005 | 0.0935 | -0.0112 | -0.0238 | -0.0001 | 0.002 | -0.0391 | -0.0231 | -0.0631 |
| C=CCn1c(=O)c2cnc(Nc3ccc(N4CCN(C)CC4)cc3)nc2n1-c1cccc(C(C)(C)O)n1 [AZD1775] + O=C(c1cc(Cc2n[nH]c(=O)c3ccccc23)ccc1F)N1CCN(C(=O)C2CC2)CC1 [Olaparib] (first compound max 1 µM, partner max 10 µM) | 0.0029 | -0.0094 | -0.0095 | 0.0004 | -0.0482 | -0.0461 | -0.0146 | -0.0136 | -0.0021 | -0.0018 | -0.013 | 0.0351 | 0.0311 | -0.0568 | -0.035 | -0.0266 | -0.0301 | -0.0099 | -0.0323 | -0.0963 |
| Cn1cnc2c(F)c(Nc3ccc(Br)cc3Cl)c(C(=O)NOCCO)cc21 [Selumetinib] + CCN(CCO)CCCOc1ccc2c(Nc3cc(CC(=O)Nc4cccc(F)c4)[nH]n3)ncnc2c1 [AZD2811] (first compound max 10 µM, 7x7, partner max 1 µM) | 0.0277 | -0.0527 | -0.0735 | 0.003 | -0.0064 | -0.0544 | -0.0566 | -0.0479 | -0.0123 | -0.0208 | -0.0082 | -0.0239 | 0.0986 | -0.0267 | -0.0364 | -0.057 | 0.0259 | 0.0129 | -0.0479 | -0.035 |
| Cn1cnc2c(F)c(Nc3ccc(Br)cc3Cl)c(C(=O)NOCCO)cc21 [Selumetinib] + C=CCn1c(=O)c2cnc(Nc3ccc(N4CCN(C)CC4)cc3)nc2n1-c1cccc(C(C)(C)O)n1 [AZD1775] (first compound max 10 µM, partner max 1 µM) | -0.0146 | -0.0202 | -0.0179 | -0.013 | -0.0754 | -0.0587 | 0.0038 | -0.0495 | -0.0789 | -0.0541 | -0.101 | -0.0737 | -0.021 | -0.0417 | -0.0331 | 0.0243 | 0.0207 | 0.0024 | -0.0186 | -0.0821 |
| CN(CCO)CC[C@H](CSc1ccccc1)Nc1ccc(S(=O)(=O)NC(=O)c2ccc(N3CCC([C@@H](O)c4ccccc4-c4ccc(Cl)cc4)CC3)cc2)cc1S(=O)(=O)C(F)(F)F [AZD4320] + C=CCn1c(=O)c2cnc(Nc3ccc(N4CCN(C)CC4)cc3)nc2n1-c1cccc(C(C)(C)O)n1 [AZD1775] (first compound max 1 µM, partner max 1 µM) | 0.0015 | 0.0011 | -0.0509 | 0.117 | -0.0034 | -0.0083 | -0.0178 | -0.0408 | 0.141 | 0.0931 | -0.0089 | 0.0007 | 0.0833 | 0.0142 | -0.025 | 0.0575 | -0.0226 | -0.0201 | 0.107 | 0.0361 |
| Cc1c2c(nn1C)CSCc1cc(n(C)n1)CSc1cc(c3ccccc3c1)OCCCc1c(C(=O)O)n(C)c3c-2c(Cl)ccc13 [AZD5991] + Cn1cnc2c(F)c(Nc3ccc(Br)cc3Cl)c(C(=O)NOCCO)cc21 [Selumetinib] (first compound max 1 µM, 7x7, partner max 3 µM) | 0.0408 | 0.0457 | -0.0092 | 0.0117 | -0.0419 | -0.0609 | 0.0794 | 0.0438 | 0.0011 | 0.0517 | -0.0345 | 0.0353 | 0.0841 | 0.0253 | -0.0684 | 0.0457 | 0.0324 | -0.0222 | 0.0025 | -0.0098 |
| CC(=O)c1c(C)c2cnc(Nc3ccc(N4CCNCC4)cn3)nc2n(C2CCCC2)c1=O [Palbociclib] + CC1(C)CCC(CN2CCN(c3ccc(C(=O)NS(=O)(=O)c4ccc(NCC5CCOCC5)c([N+](=O)[O-])c4)c(Oc4cnc5[nH]ccc5c4)c3)CC2)=C(c2ccc(Cl)cc2)C1 [Venetoclax] (first compound max 10 µM, 7x7, partner max 1 µM) | 0.0153 | -0.0333 | 0.0466 | 0.0129 | -0.0338 | -0.0434 | -0.0448 | -0.0556 | 0.126 | -0.0058 | -0.0421 | -0.0356 | 0.0162 | -0.0607 | -0.0174 | -0.0429 | -0.0142 | -0.0286 | -0.0132 | -0.0501 |
| CC1(C)CCC(CN2CCN(c3ccc(C(=O)NS(=O)(=O)c4ccc(NCC5CCOCC5)c([N+](=O)[O-])c4)c(Oc4cnc5[nH]ccc5c4)c3)CC2)=C(c2ccc(Cl)cc2)C1 [Venetoclax] + CCN(CCO)CCCOc1ccc2c(Nc3cc(CC(=O)Nc4cccc(F)c4)[nH]n3)ncnc2c1 [AZD2811] (first compound max 1 µM, 7x7, partner max 1 µM) | 0.0132 | -0.0549 | 0.0229 | 0.101 | -0.0081 | -0.0575 | -0.0397 | -0.0249 | 0.0653 | -0.0506 | -0.0047 | -0.0087 | 0.129 | -0.0256 | -0.0604 | 0.0003 | -0.0097 | -0.0137 | -0.0282 | -0.0394 |
| CC(=O)c1c(C)c2cnc(Nc3ccc(N4CCNCC4)cn3)nc2n(C2CCCC2)c1=O [Palbociclib] + Cn1cnc2c(F)c(Nc3ccc(Br)cc3Cl)c(C(=O)NOCCO)cc21 [Selumetinib] (first compound max 10 µM, 7x7, partner max 10 µM) | -0.0069 | 0.0449 | -0.0328 | 0.0184 | -0.0588 | -0.0509 | -0.0282 | -0.0476 | -0.0089 | 0.0242 | -0.0239 | -0.0361 | 0.0495 | -0.0073 | -0.0052 | -0.0238 | 0.0418 | 0.0303 | -0.0334 | -0.0393 |
| COc1cccc(OCCCN)c1-c1cc(Nc2cnc(C#N)cn2)n[nH]1 [Prexasertib] + C=CCn1c(=O)c2cnc(Nc3ccc(N4CCN(C)CC4)cc3)nc2n1-c1cccc(C(C)(C)O)n1 [AZD1775] (first compound max 1 µM, partner max 1 µM) | 0.105 | 0.227 | 0.085 | 0.168 | 0.0729 | -0.0353 | 0.0668 | 0.144 | 0.0398 | 0.0907 | 0.0601 | 0.16 | 0.0393 | 0.136 | 0.0023 | -0.0074 | 0.0483 | -0.0496 | 0.0657 | 0.0087 |
| CN(CCO)CC[C@H](CSc1ccccc1)Nc1ccc(S(=O)(=O)NC(=O)c2ccc(N3CCC([C@@H](O)c4ccccc4-c4ccc(Cl)cc4)CC3)cc2)cc1S(=O)(=O)C(F)(F)F [AZD4320] + C[C@@H]1COCCN1C2=NC(=NC(=C2)C3(CC3)[S@](=N)(=O)C)C4=C5C=CNC5=NC=C4 [AZD6738] (first compound max 1 µM, 7x7, partner max 10 µM) | -0.014 | -0.0006 | -0.0566 | 0.0003 | -0.0749 | -0.0601 | -0.0182 | -0.0344 | 0.0653 | 0.0052 | -0.0303 | -0.0231 | 0.0189 | -0.0067 | -0.0819 | 0.0373 | 0.0076 | 0.0073 | -0.0092 | -0.047 |
